Some test systems named below: NCI-H23 lung; A549 NSCLC; UACC-257 melanoma; SK-MEL-2 melanoma; ACHN renal; KM12 colon; SF-295 CNS; LOX IMVI melanoma; HOP-62 NSCLC; RPMI-8226 leukemia.
Holding throughout (assay): growth of human tumour cells (NCI), 48 h

Several values for one entry are separate records, joined by “and”; a condition that tells them apart may be missing. Equal entries are not always repeated.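 Briefly, cells in 96-well plates were exposed to five compound concentrations for 48 h, and endpoints were estimated by linear interpolation. GI50 marks 50% less growth. TGI: total growth inhibition.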

Data on 18 molecules can be found in PubChem BioAssay (NCI).

As to `COc1cc(-c2nc3ccccc3s2)ccc1OCc1nc2n(n1)S(=O)(=O)c1ccccc1N2C`, the GI50 with NCI-H23 lung, with A549 NSCLC, in the assay on UACC-257 melanoma, with SK-MEL-2 melanoma, with ACHN renal and with KM12 colon was > 100 µM in each case. Also, the GI50 in the assay on SF-295 CNS, with LOX IMVI melanoma and in the assay on HOP-62 NSCLC was > 100 µM each time. Moreover, the TGI in the assay on NCI-H23 lung, in the assay with A549 NSCLC, in the assay on UACC-257 melanoma, with SK-MEL-2 melanoma, with ACHN renal and in the assay on KM12 colon was > 100 µM in each case. The TGI in the assay on SF-295 CNS, in the assay on LOX IMVI melanoma and in the assay on HOP-62 NSCLC was > 100 µM throughout.

For the molecule `O=C(NCC#CCO)C(F)(F)F`, the TGI with NCI-H23 lung, in the assay on A549 NSCLC, in the assay on UACC-257 melanoma, in the assay with SK-MEL-2 melanoma, with ACHN renal and in the assay with KM12 colon was > 100 µM each time. In addition, the TGI with LOX IMVI melanoma and in the assay with HOP-62 NSCLC was > 100 µM in each case.

In the case of `C/C(=C\c1ccn(-c2ccc(N)cc2)n1)[C@@H]1C[C@@H]2O[C@]2(C)CCC[C@H](C)[C@H](O)[C@@H](C)C(=O)C(C)(C)[C@@H](O)CC(=O)O1`, the GI50 in the assay on NCI-H23 lung was 0.0594 µM; in the assay on A549 NSCLC, 0.0348 µM; in the assay on SK-MEL-2 melanoma, 0.0758 µM; in the assay on ACHN renal, 0.161 µM; in the assay with KM12 colon, 0.0196 µM; in the assay on SF-295 CNS, 0.0721 µM. The GI50 with LOX IMVI melanoma was 0.0273 µM; with HOP-62 NSCLC it was 0.0682 µM; with RPMI-8226 leukemia it was 0.0214 µM. For the same molecule, the TGI in the assay with NCI-H23 lung, in the assay on A549 NSCLC, with SK-MEL-2 melanoma, in the assay with ACHN renal, with KM12 colon and with SF-295 CNS was > 50 µM each time. Further, the TGI in the assay with LOX IMVI melanoma, in the assay on HOP-62 NSCLC and in the assay on RPMI-8226 leukemia was > 50 µM each time.

Regarding `COc1ccc2c(c1)[n+]([O-])c(-c1nc3ccccc3s1)c(N)[n+]2[O-]`, the TGI in the assay on NCI-H23 lung, in the assay with A549 NSCLC, in the assay on UACC-257 melanoma, in the assay with SK-MEL-2 melanoma, in the assay on ACHN renal and in the assay with KM12 colon was > 100 µM throughout. Further, the TGI in the assay with SF-295 CNS, with HOP-62 NSCLC and with RPMI-8226 leukemia was > 100 µM throughout.

As for `CC1C2=CC=C(O2)C(C)(C)C2=CC=C(O2)C(C)(C)C2=CC=C(O2)C(C)(C)C2=CC=C1O2`, the TGI in the assay on NCI-H23 lung, with A549 NSCLC, with UACC-257 melanoma, in the assay on SK-MEL-2 melanoma, in the assay on ACHN renal and with KM12 colon was > 100 µM in each case. The TGI with SF-295 CNS, in the assay on LOX IMVI melanoma and with HOP-62 NSCLC was > 100 µM throughout.

In the case of `COC1CC2CCC(C)[C@](O)(O2)C(=O)C(=O)N2CCCCC2C(=O)OC(C(C)CC2CCC(O)C(OC)C2)CC(=O)C(C)C=C(C)C(OC(=O)CN(C)C)C(OC)C(=O)C(C)CC(C)/C=C/C=C/C=C\1C` (some centres not stated), the TGI worked out at 24.3 µM with NCI-H23 lung; 26.9 µM in the assay on A549 NSCLC; 24.1 µM in the assay with UACC-257 melanoma; 15.1 µM with SK-MEL-2 melanoma; 19.6 µM in the assay on ACHN renal; 23.1 µM in the assay on KM12 colon. For the same molecule, the TGI was 20.7 µM in the assay with SF-295 CNS, 16.7 µM in the assay on LOX IMVI melanoma and 19.3 µM in the assay on HOP-62 NSCLC.

`COC(=O)C1=CC2OC1(C)C1(CC1)C2=O` (configuration not stated): the TGI in the assay with NCI-H23 lung worked out at 49.7 µM; in the assay on A549 NSCLC it was 70 µM; in the assay with UACC-257 melanoma, 31 µM; with ACHN renal it was 34.4 µM; with KM12 colon, 43.9 µM; in the assay with SF-295 CNS it was 34.4 µM. Also, the TGI was 28.5 µM in the assay with LOX IMVI melanoma, > 100 µM with HOP-62 NSCLC and 30.3 µM in the assay with RPMI-8226 leukemia.

Take `Nc1nc(N)c(-c2ccc(Cl)cc2)c(CCC(=O)Nc2cccc(C(F)(F)F)c2)n1`: the TGI in the assay with NCI-H23 lung, in the assay with A549 NSCLC, in the assay on UACC-257 melanoma, in the assay with SK-MEL-2 melanoma, in the assay with ACHN renal and with KM12 colon was > 100 µM each time. Moreover, the TGI in the assay on SF-295 CNS, in the assay on LOX IMVI melanoma and in the assay with HOP-62 NSCLC was > 100 µM throughout.

Regarding `COC(=O)C1C(=O)O[C@@H](c2ccc(OC)cc2OC)C1C(=O)OC` (some centres not stated), the TGI with NCI-H23 lung, in the assay on A549 NSCLC, in the assay with UACC-257 melanoma, in the assay with ACHN renal, in the assay on KM12 colon and with SF-295 CNS was > 100 µM throughout. Besides, the TGI in the assay on LOX IMVI melanoma, in the assay on HOP-62 NSCLC and in the assay on RPMI-8226 leukemia was > 100 µM each time.

As for `CC1OC(O)CC(OC(=O)c2ccccc2)C1OC(=O)c1ccccc1` (configuration not stated), the TGI was 30.8 µM in the assay with NCI-H23 lung; > 100 µM in the assay with A549 NSCLC; 29.4 µM in the assay on UACC-257 melanoma; > 100 µM in the assay on ACHN renal; > 100 µM with KM12 colon; > 100 µM in the assay with SF-295 CNS. Besides, the TGI in the assay with LOX IMVI melanoma is 23.1 µM; in the assay with HOP-62 NSCLC, > 100 µM; in the assay with RPMI-8226 leukemia, 31.8 µM.

On to `COC(=O)C1=CC2OC13CC1CCC3(C2=O)C1(C)C` (configuration not stated), for which the TGI with NCI-H23 lung came to 32.1 µM; in the assay on A549 NSCLC it was 92.7 µM; in the assay on UACC-257 melanoma, 24.1 µM; in the assay with SK-MEL-2 melanoma, 28.7 µM; in the assay on ACHN renal, 21.2 µM; with KM12 colon, 30.6 µM. Further, the TGI with SF-295 CNS is 40.5 µM; in the assay with HOP-62 NSCLC, 48.1 µM; with RPMI-8226 leukemia it was 38.6 µM.

`CN=S(=O)(C[C@]1(O)CC2OC1C1OC(C)(C)OC21)c1ccccc1` (some centres not stated): the TGI in the assay with NCI-H23 lung, in the assay on A549 NSCLC, in the assay on UACC-257 melanoma, in the assay with SK-MEL-2 melanoma, with ACHN renal and with KM12 colon was > 100 µM in each case. Besides, the TGI with SF-295 CNS, with HOP-62 NSCLC and with RPMI-8226 leukemia was > 100 µM throughout.

Turning to `CC[C@H](C)C(=O)O[C@H]1CCC=C2C=C[C@H](C)C(CCC3C[C@@H](O)CC(=O)O3)[C@H]21` (some centres not stated), the GI50 was 3.5 µM in the assay with NCI-H23 lung; 17.7 µM in the assay on A549 NSCLC; > 100 µM in the assay with UACC-257 melanoma; 6.98 µM in the assay with SK-MEL-2 melanoma; 1.7 µM with ACHN renal; 45.6 µM with KM12 colon. The values for the GI50 with SF-295 CNS, with LOX IMVI melanoma and in the assay with HOP-62 NSCLC were 1.58 µM, 0.965 µM and 18.1 µM, respectively. The TGI in the assay with NCI-H23 lung, with A549 NSCLC, in the assay on UACC-257 melanoma, in the assay on SK-MEL-2 melanoma, in the assay on ACHN renal and with KM12 colon was > 100 µM each time. Moreover, the TGI in the assay on SF-295 CNS, in the assay on LOX IMVI melanoma and in the assay on HOP-62 NSCLC was > 100 µM each time.

Take `O=C(C=Nc1ccccc1C(=O)[O-])c1cccs1.O=C(C=Nc1ccccc1C(=O)[O-])c1cccs1.[Cu+2]`: the TGI in the assay on NCI-H23 lung, in the assay with A549 NSCLC, in the assay on UACC-257 melanoma, in the assay on SK-MEL-2 melanoma, with ACHN renal and in the assay with KM12 colon was > 100 µM in each case. Besides, the TGI in the assay on SF-295 CNS, with LOX IMVI melanoma and in the assay with HOP-62 NSCLC was > 100 µM throughout.

With `CCCCCCCCCCCC(=O)OCC1OC(n2cc(F)c(=O)[nH]c2=O)C(N)C(O)C1O` (configuration not stated), the TGI in the assay on NCI-H23 lung, in the assay on A549 NSCLC, in the assay on UACC-257 melanoma, in the assay with SK-MEL-2 melanoma, in the assay on ACHN renal and with KM12 colon was > 100 µM throughout. Further, the TGI in the assay on SF-295 CNS, with HOP-62 NSCLC and with RPMI-8226 leukemia was > 100 µM in each case.

Regarding `C[C@]12CCC(=O)C=C1CC[C@@H]1[C@@H]2CC[C@]2(C)C(=O)/C(=C/c3cccc(OCCN4CCOCC4)c3)C[C@@H]12`, the GI50 in the assay on NCI-H23 lung was 3.79 µM; in the assay with A549 NSCLC it was 7.17 µM; in the assay on UACC-257 melanoma, 6.13 µM; in the assay with SK-MEL-2 melanoma it was 16.1 µM; in the assay with ACHN renal, 18.7 µM; in the assay on KM12 colon, 9.02 µM. Also, the figures for the GI50 with SF-295 CNS, in the assay on LOX IMVI melanoma and in the assay with HOP-62 NSCLC were 3.74 µM, 9.44 µM and 12.6 µM, respectively. The TGI in the assay with NCI-H23 lung was 20.6 µM; with A549 NSCLC, 89.5 µM; in the assay with UACC-257 melanoma it was 19 µM; in the assay on SK-MEL-2 melanoma it was 34.4 µM; in the assay with ACHN renal, > 100 µM; in the assay on KM12 colon it was > 100 µM. Further, the TGI with SF-295 CNS was found to be 16.6 µM; with LOX IMVI melanoma, 26.6 µM; in the assay with HOP-62 NSCLC, 29 µM.

For `Nc1ccn([C@@H]2C=C(CO)[C@@H](O)[C@H]2O)c(=O)n1`, the GI50 in the assay with NCI-H23 lung was 0.114 µM; in the assay on UACC-257 melanoma it was 2.97 µM and 1.12 µM; in the assay with ACHN renal it was 0.05 µM; with KM12 colon it was 0.16 µM and 0.0625 µM; with HOP-62 NSCLC, 0.0593 µM and 0.0749 µM; in the assay with RPMI-8226 leukemia, 0.0128 µM and 0.0635 µM and 0.126 µM. The TGI was 470 µM with UACC-257 melanoma; 346 µM and 301 µM in the assay on SK-MEL-2 melanoma; 500 µM in the assay with ACHN renal; 500 µM and > 625 µM in the assay on KM12 colon; 316 µM and > 625 µM with SF-295 CNS.

In the case of `CC1C(=O)N(C)C2(CO)C(=O)O[C@H](C)C12O` (some centres not stated), the TGI in the assay on NCI-H23 lung, with A549 NSCLC, with SK-MEL-2 melanoma, with KM12 colon, with SF-295 CNS and in the assay on HOP-62 NSCLC was > 100 µM each time. For the same molecule, the TGI in the assay with RPMI-8226 leukemia was > 100 µM.
